Counter-ions that a name gives are not always drawn. Like-named read-outs stand apart in the source and are kept apart here. Numbered stars: 1 amine (or outer) side, 2 acyl side, 3 side chain; on linkers, the order of the positions; unused ones are H or OH. Bridge positions count the residues as written; N and C are the ends. Square brackets hold non-standard residues; d marks the D form. Peptide text beside a SMILES is read from it. I, II: the chains in the order shown. Actinocin(9to1) = Cc1c2oc3c(C)ccc(C(=O)[*:1])c3nc-2c(C(=O)[*:2])c(N)c1=O; NMeV = CN[C@H](C(=O)O)C(C)C; Sar = CNCC(=O)O
Legend:
[1] = test system: ZIKV MR766 NS1; test: microbe, parasite or virus in culture; type: cell-based, Zika virus; settings: read-out: NS1-IC50
Procedure: A one-step NS1 TR-FRET (Time-resolved fluorescence resonance energy transfer) assay for a screen of anti-ZIKV compounds was carried out. Human embryonic kidney cell line HEK293 cells were seeded into 384-well plates and infected with ZIKV MR766 at a MOI of 0.5 for 2 days. The FRET assay was performed with two clones of anti-NS1 antibody (ab) differentially labelled with donor and acceptor fluorophores.

[2] = test system: HEK293 cells; test: Toxicity IC50 (cell-killing activity) of the NS1 TR-FRET screen; type: cell-based, human; settings: cell-killing activity; for IC50: read-out: Tox IC50
[3] = test system: ZIKV-induced caspase 3/7 activity in human astrocytes; test: Caspase 3/7 activity assay, ZIKV-infected human astrocytes; type: cell-based; settings: ZIKV-infected human astrocytes; for IC50: read-out: Caspase 3 (IC50, uM) Astrocyte; for Emax: read-out: Caspase 3 (efficacy, %) Astrocyte
How it was run: (§1)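 Human NPCs, SNB-19 cells or astrocytes seeded 16 h, compound added 30 min before ZIKV, then 6 h infection at 37 °C. Caspase-Glo 3/7 luminescence after 30 min at room temperature, normalized to uninfected cells (0%) and ZIKV-infected cells (100%).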

[4] = test system: ZIKV-induced caspase 3/7 activity in SNB-19 cells; test: Caspase 3/7 activity assay, ZIKV-infected SNB-19 cells; type: cell-based; settings: ZIKV-infected SNB-19 cells; for IC50: read-out: Caspase 3 (IC50, uM) SNB-19; for Emax: read-out: Caspase 3 (efficacy, %) SNB-19
How it was run: as §1

[5] = test system: ZIKV-induced caspase 3/7 activity in hNPCs; test: Caspase 3/7 activity assay, ZIKV-infected hNPCs; type: cell-based; settings: ZIKV-infected hNPCs; for IC50: read-out: Caspase 3 (IC50, uM) NPCs; for Emax: read-out: Caspase 3 (efficacy, %) NPCs
How it was run: as §1

[6] = test system: ZIKV-induced cell death in human astrocytes; test: ATP cell viability assay for ZIKV-induced cell death, human astrocytes; type: cell-based; settings: ZIKV-infected human astrocytes; for IC50: read-out: Cell viability (IC50, uM) Astrocyte
[7] = test system: ZIKV-induced cell death in SNB-19 cells; test: ATP cell viability assay for ZIKV-induced cell death, SNB-19 cells; type: cell-based, human; settings: ZIKV-infected SNB-19 cells; for IC50: read-out: Cell viability (IC50, uM) SNB-19
How it was run: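 The extent of cell death caused by ZIKV infection was determined from ATP levels. Cells grew in assay plates for 16 hours at 37° C. with 5% CO2, were then given ZIKV solution and kept under the same conditions for 72 hours. ATPlite reagent was applied for 15 minutes and luminescence was read on a ViewLux plate reader. Cell-free wells defined 100% killing and uninfected cell wells defined full viability.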

[8] = HEK293 cells, ZIKV MR766, MOI 0.5, 2 days, virus-inhibiting activity

SMILES: COc1cccc2c1C(=O)c1c(O)c3c(c(O)c1C2=O)C[C@@](O)(C(C)=O)C[C@@H]3O[C@H]1C[C@H](N)[C@H](O)[C@H](C)O1 [Daunorubicin]
- IC50 ([1]; Zika virus, HEK293, 48 h): 0.536 µM
- Tox IC50 [2]: No

SMILES: Cn1c2ccccc2c2c3c(c4c5ccccc5n(CCC#N)c4c21)CNC3=O [Go-6976]
- IC50 ([1]; Zika virus, HEK293, 48 h): 0.944 µM
- IC50 ([2]; Homo sapiens, HEK293): 20.2 µM

SMILES: CC[C@@H]1C(=O)N(C)c2cnc(Nc3ccc(C(=O)N[C@H]4CC[C@H](N5CCN(CC6CC6)CC5)CC4)cc3OC)nc2N1C(C)C [Volasertib]
- IC50 ([1]; Zika virus, HEK293, 48 h): 0.0648 µM
- Tox IC50 [2]: No

SMILES: Cc1ccc(C(=O)N(CCCN)[C@@H](c2nc3cc(Cl)ccc3c(=O)n2Cc2ccccc2)C(C)C)cc1 [Ispinesib]
- IC50 ([1]; Zika virus, HEK293, 48 h): 0.0674 µM
- IC50 ([2]; Homo sapiens, HEK293): 37.5 µM

SMILES: CC(C)C[C@H](NC(=O)CNC(=O)c1cc(Cl)ccc1Cl)B(O)O [MLN-2238]
- IC50 ([1]; Zika virus, HEK293, 48 h): 0.234 µM
- IC50 ([2]; Homo sapiens, HEK293): 2.13 µM

SMILES: CS[C@H]1SC[C@H]2C(=O)N(C)[C@@H](C(C)C)C(=O)OC[C@@H](NC(=O)c3cnc4ccccc4n3)C(=O)N[C@@H](C)C(=O)N(C)[C@@H]1C(=O)N(C)[C@@H](C(C)C)C(=O)OC[C@@H](NC(=O)c1cnc3ccccc3n1)C(=O)N[C@@H](C)C(=O)N2C [Echinomycin]
- IC50 ([1]; Zika virus, HEK293, 48 h): 0.0174 µM
- Tox IC50 [2]: No

SMILES: O=c1[nH]c(=O)n([C@H]2C[C@H](O)[C@@H](CO)O2)cc1F [Floxuridine]
- IC50 ([1]; Zika virus, HEK293, 48 h): 0.918 µM
- IC50 ([2]; Homo sapiens, HEK293): 60 µM

SMILES: COc1c(C)c2c(c(O)c1C/C=C(\C)CCC(=O)OCCN1CCOCC1)C(=O)OC2 [Mycophenolate mofetil]
- IC50 ([1]; Zika virus, HEK293, 48 h): 0.529 µM
- Tox IC50 [2]: No

SMILES: CN[C@@H]1C[C@H]2O[C@@](C)([C@@H]1OC)n1c3ccccc3c3c4c(c5c6ccccc6n2c5c31)C(=O)N[C@H]4O [7-Hydroxystaurosporine]
- IC50 [1, 8]: 0.76 µM
- IC50 [2]: 102 µM

SMILES: Cc1c2oc3c(C)ccc(C(=O)N[C@@H]4C(=O)N[C@H](C(C)C)C(=O)N5CCC[C@H]5C(=O)N(C)CC(=O)N(C)[C@@H](C(C)C)C(=O)O[C@@H]4C)c3nc-2c(C(=O)N[C@@H]2C(=O)N[C@H](C(C)C)C(=O)N3CCC[C@H]3C(=O)N(C)CC(=O)N(C)[C@@H](C(C)C)C(=O)O[C@@H]2C)c(N)c1=O [Actinomycin D] (I: T[dV]P[Sar][NMeV] / II: T[dV]P[Sar][NMeV]; ester I:1-I:C, II:1-II:C; linker I:N-II:N via Actinocin(9to1))
- IC50 [1, 8]: 0.352 µM
- Tox IC50 [2]: No

SMILES: C[C@]1(CO)CN(c2cc(C(=O)Nc3ccc4c(c3)-c3c(c(C(N)=O)nn3-c3ccc(F)cc3)CC4)c(Cl)cn2)C[C@@]1(C)CO [PF-184]
- IC50 [1, 8]: 0.388 µM
- Tox IC50 [2]: No

SMILES: COc1cccc2c1C(=O)c1c(O)c3c(c(O)c1C2=O)C[C@@](O)(C(=O)CO)C[C@@H]3O[C@H]1C[C@H](N)[C@@H](O)[C@H](C)O1 [Epirubicin hydrochloride]
- IC50 ([1]; Zika virus, HEK293, 48 h): 0.492 µM

SMILES: CC[C@@]1(O)C(=O)OCc2c1cc1n(c2=O)Cc2cc3c(CN(C)C)c(O)ccc3nc2-1 [Topotecan hydrochloride]
- IC50 ([1]; Zika virus, HEK293, 48 h): 0.0514 µM
- Tox IC50 [2]: No

SMILES: CC[C@]1(O)C[C@H]2CN(CCc3c([nH]c4ccccc34)[C@@](C(=O)OC)(c3cc4c(cc3OC)N(C=O)[C@H]3[C@@](O)(C(=O)OC)[C@H](OC(C)=O)[C@]5(CC)C=CCN6CC[C@]43[C@@H]65)C2)C1 [Vincristine sulfate]
- IC50 ([1]; Zika virus, HEK293, 48 h): 0.156 µM
- Tox IC50 [2]: No

SMILES: C/C=C(/C)C(=O)O[C@H]1C(C)=C2[C@H]([C@@H]1OC(=O)CCCCCCC)[C@@](C)(OC(C)=O)C[C@H](OC(=O)CCC)[C@@]1(O)[C@H]2OC(=O)[C@@]1(C)O [Thapsigargin]
- IC50 ([1]; Zika virus, HEK293, 48 h): 0.171 µM
- IC50 ([2]; Homo sapiens, HEK293): 40 µM

SMILES: CC(C)[C@]12O[C@H]1[C@@H]1O[C@]13[C@]1(O[C@H]1C[C@H]1C4=C(CC[C@@]13C)C(=O)OC4)[C@@H]2O [Triptolide]
- IC50 ([1]; Zika virus, HEK293, 48 h): 0.465 µM
- Tox IC50 [2]: No

SMILES: O=C1c2c(O)ccc(O)c2C(=O)c2c(NCCNCCO)ccc(NCCNCCO)c21 [Mitoxantrone]
- IC50 ([1]; Zika virus, HEK293, 48 h): 0.232 µM
- IC50 ([2]; Homo sapiens, HEK293): 50 µM

SMILES: CC[C@@H]1C(=O)N(C)c2cnc(Nc3ccc(C(=O)NC4CCN(C)CC4)cc3OC)nc2N1C1CCCC1 [BI-2536]
- Tox IC50 [2]: No

SMILES: CCC[S+]([O-])c1ccc2[nH]c(NC(=O)OC)nc2c1 (centres unmarked) [Albendazole oxide]
- IC50 ([3]; Astrocyte): 15.5 µM
- Emax ([3]; Astrocyte): 78.8%
- IC50 ([4]; Homo sapiens): 21.8 µM
- Emax ([4]; Homo sapiens): 86%
- IC50 ([5]; Homo sapiens): 12.3 µM
- Emax ([5]; Homo sapiens): 88.1%
- Cell viability (efficacy, %) Astrocyte [6]: 0.0%
- Cell viability (efficacy, %) SNB-19 [7]: 0.0%

SMILES: CC(C)(C)COc1ccc(-n2cc(C(=O)O)cn2)cc1C#N [Piraxostat]
- Caspase 3 (efficacy, %) Astrocyte [3]: 70.5%
- IC50 [3]: 8.91 µM
- Caspase 3 (efficacy, %) SNB-19 [4]: 63.5%
- IC50 [4]: 21.1 µM
- Caspase 3 (efficacy, %) NPCs [5]: 67.1%
- IC50 [5]: 15.8 µM
- Cell viability (efficacy, %) Astrocyte [6]: 34.7%
- IC50 [6]: 63.1 µM
- Cell viability (efficacy, %) SNB-19 [7]: 60.3%
- IC50 [7]: 5.01 µM

SMILES: Clc1ccccc1-c1nc(-c2ccncc2)no1 [Pifexole]
- IC50 ([3]; Astrocyte): 6.9 µM
- Emax ([3]; Astrocyte): 86.3%
- IC50 ([4]; Homo sapiens): 8.2 µM
- Emax ([4]; Homo sapiens): 83.6%
- IC50 ([5]; Homo sapiens): 4.61 µM
- Emax ([5]; Homo sapiens): 92.2%
- Cell viability (efficacy, %) Astrocyte [6]: 0.0%
- Cell viability (efficacy, %) SNB-19 [7]: 0.0%

SMILES: CN1CC[C@@]2(C)c3cc(OC(=O)Nc4ccccc4)ccc3N(C)[C@@H]12 [Phenserine]
- IC50 ([3]; Astrocyte): 25.9 µM
- Emax ([3]; Astrocyte): 47.4%
- IC50 ([4]; Homo sapiens): 19.5 µM
- Emax ([4]; Homo sapiens): 38.4%
- IC50 ([5]; Homo sapiens): 25.9 µM
- Emax ([5]; Homo sapiens): 51.5%
- Cell viability (efficacy, %) Astrocyte [6]: 0.0%
- Cell viability (efficacy, %) SNB-19 [7]: 0.0%

SMILES: CC(=O)Oc1ccccc1C(=O)Nc1ncc([N+](=O)[O-])s1 [Nitazoxanide]
- IC50 ([3]; Astrocyte): 2 µM
- Emax ([3]; Astrocyte): 90.3%
- IC50 ([4]; Homo sapiens): 2.24 µM
- Emax ([4]; Homo sapiens): 86.4%
- IC50 ([5]; Homo sapiens): 1.26 µM
- Emax ([5]; Homo sapiens): 82.3%
- IC50 ([6]; Astrocyte): 31.6 µM
- Cell viability (efficacy, %) Astrocyte [6]: 53.6%
- IC50 ([7]; Homo sapiens): 23.7 µM
- Cell viability (efficacy, %) SNB-19 [7]: 62.1%

SMILES: O=c1cc(-c2ccccc2)oc2cc(O)cc(O)c12 [5,7-Dihydroxyflavone]
- IC50 ([3]; Astrocyte): 15.5 µM
- Emax ([3]; Astrocyte): 55.1%
- IC50 ([4]; Homo sapiens): 8.69 µM
- Emax ([4]; Homo sapiens): 42.7%
- IC50 ([5]; Homo sapiens): 5.48 µM
- Emax ([5]; Homo sapiens): 51%
- Cell viability (efficacy, %) Astrocyte [6]: 0.0%
- Cell viability (efficacy, %) SNB-19 [7]: 0.0%

SMILES: C=CC[C@@H]1/C=C(\C)C[C@H](C)C[C@H](OC)[C@H]2O[C@@](O)(C(=O)C(=O)N3CCCC[C@H]3C(=O)O[C@H](/C(C)=C/[C@@H]3CC[C@@H](O)[C@H](OC)C3)[C@H](C)[C@@H](O)CC1=O)[C@H](C)C[C@@H]2OC [FK-506]
- IC50 ([1]; Zika virus, HEK293, 48 h): 0.104 µM

SMILES: O=c1c2ccccc2nc2n1CCc1c-2[nH]c2ccccc12 [Rutaecarpine]
- IC50 ([3]; Astrocyte): 4.89 µM
- Emax ([3]; Astrocyte): 89.5%
- IC50 ([4]; Homo sapiens): 5.18 µM
- Emax ([4]; Homo sapiens): 86.4%
- IC50 ([5]; Homo sapiens): 4.61 µM
- Emax ([5]; Homo sapiens): 87.5%
- Cell viability (efficacy, %) Astrocyte [6]: 0.0%
- Cell viability (efficacy, %) SNB-19 [7]: 0.0%
